Source: the supplement of paper PMC10331698
± gives the standard deviation of the averaged measurements.

Experiments:
Assay in all cases: LOEC (log10 uM (lowest observed effect concentration))
[1] = compound: OCCCC(F)(F)C(F)(F)C(F)(F)C(F)(F)C(F)(F)C(F)(F)C(F)(F)C(F)(F)F [3-(Perfluorooctyl)propanol]
Procedure: (§1)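 BioMAP Diversity Plus panel in human primary cell co-cultures, 4 concentrations in duplicate blinded samples. Responses are log10 fold change versus DMSO control, processed with tcpl v2.1.0. A hit is called when responses at any concentration exceed the cutoff (the larger of 3*bmad or log10(1.2)); the lowest observed effect concentration (modl_ga, log10 uM) is reported for hits.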

[2] = compound: C=CC(=O)OCC(F)(F)C(F)(F)C(F)(F)C(F)(F)COC(=O)C=C [1H,1H,6H,6H-Perfluorohexane-1,6-diol diacrylate]
Procedure: as §1

[3] = compound: OCCC(F)(F)C(F)(F)C(F)(F)C(F)(F)C(F)(F)C(F)(F)C(F)(F)C(F)(F)F [8:2 Fluorotelomer alcohol]
Procedure: as §1

[4] = compound: OCC(F)(F)C(F)(F)C(F)(F)C(F)(F)C(F)(F)C(F)(F)C(F)(F)C(F)(F)CO [1H,1H,10H,10H-Perfluorodecane-1,10-diol]
Procedure: as §1

[5] = compound: FC(F)(I)C(F)(F)C(F)(F)C(F)(F)C(F)(F)C(F)(F)I [1,6-Diiodoperfluorohexane]
Procedure: as §1

Perfluoropinacol = compound: OC(C(F)(F)F)(C(F)(F)F)C(O)(C(F)(F)F)C(F)(F)F [Perfluoropinacol]
Procedure: as §1

[6] = compound: O=C(CC(=O)C(F)(F)C(F)(F)C(F)(F)F)c1cccs1 [(Perfluorobutyryl)-2-thenoylmethane]
Procedure: as §1

[7] = compound: C=CC(=O)OCC(F)(F)C(F)(F)C(F)(F)C(F)(F)C(F)(F)C(F)(F)C(F)(F)C(F)F [1H,1H,9H-Perfluorononyl acrylate]
Procedure: as §1

[8] = compound: OCC(F)(F)C(F)(F)C(F)(F)C(F)(F)C(F)(F)C(F)(F)C(F)(F)C(F)(F)C(F)(F)C(F)(F)C(F)(F)F [11:1 Fluorotelomer alcohol]
Procedure: as §1

Test System | LOEC (log10 uM) [1] | LOEC (log10 uM) [2] | LOEC (log10 uM) [3] | LOEC (log10 uM) [4] | LOEC (log10 uM) [5] | LOEC (log10 uM) (Perfluoropinacol) | LOEC (log10 uM) [6] | LOEC (log10 uM) [7] | LOEC (log10 uM) [8]
KF3CT SRB down | 1.3 | 1.78 | 1.3 | 1.78 | 1.07 ± 0.32 | 1.78 |  |  | 
CASM3C VCAM1 down | 1.07 ± 0.32 | 0.845 | 1.07 ± 0.32 | 1.78 | 1.3 | 1.78 | 1.54 ± 0.34 | 1.07 ± 0.32 | 
hDFCGF TIMP1 down | 1.07 ± 0.32 | 0.845 | 1.3 | 1.78 | 1.07 ± 0.32 |  |  |  | 
hDFCGF PAI1 down | 0.845 | 1.3 | 1.3 | 1.78 | 0.845 | 1.78 |  |  | 
MyoF CollagenIII down | 1.3 | 1.3 | 1.3 | 1.78 | 0.845 | 1.3 | 1.3 | 1.78 | 
BE3C EGFR down | 1.78 | 1.54 ± 0.34 |  | 1.78 | 1.78 |  | 1.31 ± 0.66 |  | 
IMphg MCP1 down | 1.3 | 1.31 ± 0.66 | 1.78 | 1.78 | 1.3 | 1.3 | 1.3 |  | 
hDFCGF MMP1 down | 1.3 | 1.3 | 1.3 | 1.78 | 0.845 |  | 1.3 |  | 
BF4T PAI1 down | 1.3 |  | 1.78 | 1.3 | 1.07 ± 0.32 | 1.3 | 1.3 |  | 
IMphg SRB.Mphg down | 1.07 ± 0.32 |  | 1.78 | 1.54 ± 0.34 | 1.3 | 1.78 | 1.78 |  | -0.222
BT xIL17A down | 1.3 | 0.845 | 1.78 | 1.78 | 1.78 | 1.3 | 1.3 | 1.54 ± 0.34 | 
BE3C MMP9 down | 1.78 | 1.54 ± 0.34 | 1.3 | 1.78 | 1.78 | 1.78 | 1.3 |  | -0.222
hDFCGF ICAM1 down | 1.07 ± 0.32 | 0.845 | 1.3 | 1.78 | 0.845 |  |  |  | 
LPS SRB down | 1.3 | 1.3 | 1.3 |  | 1.78 | 1.3 | 1.3 |  | 
SAg IL8 down | 1.78 | 1.3 | 1.78 |  | 1.78 | 1.54 ± 0.34 | 1.07 ± 0.32 |  | 
3C uPAR down | 1.54 ± 0.34 | 1.3 | 1.3 |  | 1.78 | 0.845 | 0.845 |  | 
KF3CT PAI1 down | 1.07 ± 0.32 | 1.3 | 1.3 | 1.78 | 0.845 | 1.78 |  |  | 
SAg CD40 down | 1.54 ± 0.34 | 1.07 ± 0.32 | 1.54 ± 0.34 |  | 1.78 | 1.3 | 0.845 | 1.78 | 
3C MCP1 down | 1.3 | 1.3 | 1.78 |  | 1.54 ± 0.34 | 1.78 | 1.3 |  | 
hDFCGF EGFR down | 0.845 |  | 1.54 ± 0.34 | 1.78 |  | 1.54 ± 0.34 |  |  | 
4H uPAR down | 1.54 ± 0.34 | 1.78 | 1.3 |  | 1.78 | 1.07 ± 0.32 | 1.78 |  | 
hDFCGF SRB down | 0.845 | 0.845 | 1.3 | 1.54 ± 0.34 | 0.845 |  |  |  | 
BE3C IL8 down | 1.3 | 1.3 | 1.3 | 1.54 ± 0.34 | 1.78 | 1.3 | 1.78 |  | -0.222
KF3CT ICAM1 down | 1.3 | 1.3 | 1.3 | 1.78 | 1.07 ± 0.32 |  |  |  | 
BE3C ICAM1 down | 1.78 | 1.54 ± 0.34 | 1.54 ± 0.34 | 1.78 | 1.78 |  | 1.3 |  | 

Test System | LOEC (log10 uM) [1] | LOEC (log10 uM) [2] | LOEC (log10 uM) [3] | LOEC (log10 uM) [4] | LOEC (log10 uM) [5] | LOEC (log10 uM) (Perfluoropinacol) | LOEC (log10 uM) [6] | LOEC (log10 uM) [7] | LOEC (log10 uM) [8]
hDFCGF CollagenI up |  |  |  |  |  |  |  |  | -1.22
CASM3C SRB down | 1.54 ± 0.34 | 1.78 | 1.78 |  | 1.3 | 1.78 | 1.78 |  | 
CASM3C MIG down | 1.3 | 0.845 | 1.78 |  | 1.3 | 1.78 | 1.54 ± 0.34 |  | 
MyoF VCAM1 down | 1.07 ± 0.32 | 0.845 | 1.3 | 1.78 | 0.573 ± 0.39 | 1.78 |  | 1.78 | 
3C Thrombomodulin down | 1.78 |  |  |  |  |  |  | 1.54 ± 0.34 | 
BE3C PAI1 down | 1.78 |  | 1.3 | 1.78 | 1.54 ± 0.34 | 1.07 ± 0.32 | 0.301 |  | 
4H VCAM1 down | 1.54 ± 0.34 | 1.3 | 1.54 ± 0.34 | 1.78 | 1.3 | 1.3 | 1.3 |  | 
BE3C uPA down | 1.78 | 1.54 ± 0.34 | 1.78 |  | 1.78 | 1.78 | 1.78 |  | 
BE3C IL1a down | 1.78 | 1.07 ± 0.32 | 1.3 |  | 1.78 | 1.3 | 1.3 |  | 
IMphg MCSF down | 1.78 | 1.54 ± 0.34 | 1.78 | 1.78 | 1.78 | 1.54 ± 0.34 |  |  | 
BF4T ICAM1 down | 1.3 | 1.3 | 1.78 | 1.3 | 1.07 ± 0.32 |  | 1.78 |  | 
MyoF MMP1 up |  |  |  |  |  | 1.78 |  | 1.78 | 
BF4T SRB down | 1.3 |  | 1.54 ± 0.34 | 1.78 | 1.3 |  | 1.78 |  | 
IMphg SRB down | 1.54 ± 0.34 |  | 1.78 | 1.78 | 1.3 | 1.3 | 1.3 |  | 
LPS CD40 down | 1.3 | 0.845 | 1.3 |  | 1.78 | 1.3 | 1.54 ± 0.34 |  | 
3C HLADR down | 1.3 | 1.3 | 1.3 |  | 1.54 ± 0.34 | 1.3 | 1.07 ± 0.32 |  | 
BF4T Eotaxin3 down | 1.54 ± 0.34 | 1.78 | 1.3 | 1.78 | 1.3 | 1.3 | 0.845 |  | 
MyoF ACTA1 down | 1.07 ± 0.32 | 0.845 | 1.3 | 1.78 | 0.573 ± 0.39 | 1.3 |  | 1.78 | 
IMphg CD69 down | 1.78 | 1.78 | 1.54 ± 0.34 | 1.78 | 1.78 | 1.07 ± 0.32 | 0.845 |  | 
IMphg VCAM1 down | 1.3 | 1.3 | 1.78 | 1.78 | 1.3 | 1.54 ± 0.34 | 1.54 ± 0.34 |  | 
BF4T MMP9 down | 1.3 | 1.54 ± 0.34 | 1.3 | 1.78 | 1.07 ± 0.32 |  | 1.3 |  | 
BT xIL17F up |  |  |  |  |  |  |  |  | -1.22
BT xIL6 down | 1.54 ± 0.34 | 0.845 | 1.78 | 1.78 | 1.78 |  | 1.54 ± 0.34 | 1.54 ± 0.34 | 
3C IL8 down | 1.3 | 1.54 ± 0.34 | 1.78 |  | 1.54 ± 0.34 | 1.78 | 0.845 |  | 
KF3CT MIG down | 1.3 | 1.3 | 1.54 ± 0.34 | 1.78 | 1.07 ± 0.32 | 1.78 |  |  | 

Test System | LOEC (log10 uM) [1] | LOEC (log10 uM) [2] | LOEC (log10 uM) [3] | LOEC (log10 uM) [4] | LOEC (log10 uM) [5] | LOEC (log10 uM) (Perfluoropinacol) | LOEC (log10 uM) [6] | LOEC (log10 uM) [7] | LOEC (log10 uM) [8]
IMphg ESelectin up |  |  |  |  |  |  |  |  | 0.0396 ± 0.37
LPS PGE2 up |  |  |  |  |  | 1.3 |  |  | -0.722 ± 0.71
3C VCAM1 down | 1.3 | 1.3 | 1.3 |  | 1.54 ± 0.34 | 1.78 | 1.3 |  | 
IMphg IL1a down | 1.78 |  |  | 1.78 |  |  |  |  | 
BE3C uPAR down | 1.78 | 1.78 | 1.54 ± 0.34 | 1.78 | 1.78 | 1.3 | 1.78 |  | 
LPS MCP1 down | 1.07 ± 0.32 | 1.3 | 1.3 |  | 1.78 | 1.3 | 1.3 |  | 
LPS VCAM1 down | 1.07 ± 0.32 | 1.3 | 1.07 ± 0.32 |  | 1.54 ± 0.34 | 1.54 ± 0.34 | 1.78 |  | 
SAg MIG down | 1.78 | 1.3 | 1.78 |  | 1.78 | 1.78 | 1.78 |  | 
IMphg CD40 down | 1.3 | 1.3 | 1.78 | 1.54 ± 0.34 | 1.3 | 1.3 | 1.3 |  | 0.301
SAg Eselectin down | 1.78 | 0.845 | 1.54 ± 0.34 |  | 1.78 | 1.3 | 0.845 |  | 
BE3C HLADR down | 1.78 | 1.3 | 1.3 | 1.3 | 1.54 ± 0.34 | 1.78 | 1.3 |  | -0.46 ± 0.34
KF3CT MCP1 down | 1.3 | 1.07 ± 0.32 | 1.3 | 1.78 | 0.845 |  |  |  | 
IMphg ESelectin down | 1.07 ± 0.32 | 1.3 | 1.78 | 1.54 ± 0.34 | 1.3 | 1.3 | 1.07 ± 0.32 |  | 
CASM3C uPAR down | 1.78 | 1.78 | 1.78 |  | 1.78 | 1.54 ± 0.34 | 1.78 |  | 
BF4T VCAM1 down | 1.3 | 0.845 | 1.07 ± 0.32 | 1.3 | 1.3 | 1.78 | 1.3 |  | 
IMphg IL8 down |  |  |  | 1.78 | 1.78 |  |  |  | 
CASM3C HLADR down | 1.78 | 1.54 ± 0.34 | 1.3 |  | 1.3 | 1.07 ± 0.32 | 1.78 |  | 
hDFCGF IL8 down | 1.3 | 1.3 | 1.3 | 1.78 | 0.845 |  |  |  | 
BE3C ITAC down | 1.78 | 1.78 | 1.3 | 1.3 | 1.54 ± 0.34 | 1.78 | 1.3 |  | 
KF3CT TIMP2 down | 1.3 | 1.07 ± 0.32 | 1.3 | 1.78 | 1.07 ± 0.32 | 1.78 |  |  | 
hDFCGF CollagenIII up |  |  |  |  |  |  |  |  | -0.699
BT xIL2 down | 1.78 | 0.845 | 1.3 | 1.78 | 1.54 ± 0.34 | 1.78 | 1.78 |  | 
SAg CD69 down | 1.54 ± 0.34 | 1.3 | 1.54 ± 0.34 |  | 1.78 | 1.3 | 0.845 |  | 
3C TissueFactor down | 1.3 | 1.07 ± 0.32 | 1.54 ± 0.34 |  | 1.78 | 1.3 | 1.3 |  | 
